From patent publication US8168656B2, “Indoleacetic acid and indenacetic acid derivatives as therapeutic agents with reduced gastrointestinal toxicity” (Vanderbilt University, priority 2009, dated 2012) come the findings set out here.

Experiment [1] deals with RKO cells. The experiment is described as follows: Cell viability assay (WST-1). The format is cell-based. The conditions noted are these: Homo sapiens. On the procedure: (§1) RKO and HCT-116 cells (human colorectal cancer cell lines) were cultured in microtiter plates (tissue culture grade, 96-well flat) in a final volume of 100 μl culture medium containing 5-8×10^4 cells and the final concentrations of chemicals (1-500 μM). Cells were incubated in a humidified atmosphere for 8-24 hours. To the cultures, 10 μl of cell proliferation reagent, WST-1 (Roche Applied Science, Indianapolis, Ind., United States of America) was added, and reincubated for 1-2 hours. The absorbance of the samples was determined using a microtiter plate reader at a wavelength of 405-450 nm against background control. Reference wavelength was 620 nm. The tetrazolium salt, WST-1 (4-[3-(4-Iodophenyl)-2-(4-nitrophenyl)-2H-5-tetrazolio]-1,3-benzene disulfonate) was metabolized to formazan by the “succinate-tetrazolium reductase” system, which exists in mitochondria and is active only in viable cells. Thus, the formation of formazan (dark yellow color) is proportional to the viable cell numbers.
(§2) The generated data points were used to calculate ED50 values by creating a sigmoidal dose-response curve using non-linear regression. ED50 valued were calculated using the statistical analysis program PRISM® (GraphPad Software, Inc., San Diego, Calif., United States of America).
(Formazan colour is commonly taken as a measure of viable cells.)

Experiment [2] relates to HCT-116 cells. Nature of the experiment: Cell viability assay (WST-1). The conditions noted are these: Homo sapiens. The format is cell-based. The method, then: as §1, §2
The mark [3] stands for this setting: concentration that reduces cell viability by 50%, read-out: ED50 RKO.
[4] abbreviates: concentration that reduces cell viability by 50%, read-out: ED50 HCT-116.
[5] abbreviates: second part of Table 9, read-out: ED50 RKO.
The mark [6] stands for this setting: second part of Table 9, read-out: ED50 HCT-116.

Like-named read-outs stand apart in the source and are kept apart here.

In the case of `CSc1ccc(/C=C2\C=C(CC(=O)Nc3ccccc3)c3cc(F)ccc32)cc1` [Compound 2], the EC50 in experiment [1] (setting [3]) and in experiment [2] (setting [4]) was more than 3 µM throughout.
With `CSc1ccc(/C=C2\C=C(CC(=O)NCc3ccccc3)c3cc(F)ccc32)cc1` [Compound 3], the EC50 in experiment [1] (setting [3]) stood at 1.1 ± 0.7 µM; in experiment [2] (setting [4]), 3.9 ± 0.9 µM.
On the same counts, the results for `CSc1ccc(/C=C2\C=C(CC(=O)NCCc3ccccc3)c3cc(F)ccc32)cc1` [Compound 4] are more than 3 µM and more than 3 µM.
For `CSc1ccc(/C=C2\C=C(CC(=O)NCCCc3ccccc3)c3cc(F)ccc32)cc1` [Compound 5] the same measures were more than 3 µM and more than 3 µM.
On the same counts, the results for `CSc1ccc(/C=C2\C=C(CC(=O)N(C)Cc3ccccc3)c3cc(F)ccc32)cc1` [Compound 6] are more than 3 µM and more than 3 µM.
Take `CSc1ccc(/C=C2\C=C(CC(=O)N[C@@H](C)c3ccccc3)c3cc(F)ccc32)cc1` [Compound 7]: the EC50 in experiment [1] (setting [3]) and in experiment [2] (setting [4]) was more than 3 µM throughout.
Turning to `CSc1ccc(/C=C2\C=C(CC(=O)N[C@H](C)c3ccccc3)c3cc(F)ccc32)cc1` [Compound 8], the EC50 in experiment [1] (setting [3]) and in experiment [2] (setting [4]) was more than 3 µM each time.
In the case of `CSc1ccc(/C=C2\C=C(CC(=O)NCc3ccncc3)c3cc(F)ccc32)cc1` [Compound 9], the EC50 in experiment [1] (setting [3]) and in experiment [2] (setting [4]) was more than 3 µM each time.
Consider `CSc1ccc(/C=C2\C=C(CC(=O)Nc3ccc(F)cc3Cl)c3cc(F)ccc32)cc1` [Compound 10], for which the EC50 in experiment [1] (setting [3]) and in experiment [2] (setting [4]) was more than 3 µM each time.
Consider `COc1ccc(NC(=O)CC2=C/C(=C\c3ccc(SC)cc3)c3ccc(F)cc32)cc1` [Compound 11], for which the EC50 in experiment [1] (setting [3]) and in experiment [2] (setting [4]) was more than 3 µM each time.
With `CSc1ccc(/C=C2\C=C(CC(=O)NCc3ccc(N)cc3)c3cc(F)ccc32)cc1` [Compound 12], the EC50 was 2.3 ± 0.03 µM in experiment [1] (setting [3]) and more than 3 µM in experiment [2] (setting [4]).
For `CSc1ccc(/C=C2\C=C(CC(=O)NCc3cccc(N)c3)c3cc(F)ccc32)cc1` [Compound 13] the same measures were 0.99 ± 0.03 µM and 2.08 ± 0.08 µM.
On the same counts, the results for `CSc1ccc(/C=C2\C=C(CC(=O)NCc3ccccc3N)c3cc(F)ccc32)cc1` [Compound 14] are more than 3 µM and more than 3 µM.
For `CSc1ccc(/C=C2\C=C(CC(=O)NCc3ccc(O)cc3)c3cc(F)ccc32)cc1` [Compound 15] the same measures were 0.1 ± 0.04 µM and 1.2 ± 0.2 µM.
On to `CSc1ccc(/C=C2\C=C(CC(=O)NCc3cccc(O)c3)c3cc(F)ccc32)cc1` [Compound 16], for which the EC50 in experiment [1] (setting [3]) turned out to be 0.83 ± 0.06 µM; in experiment [2] (setting [4]), 1.47 ± 0.03 µM.
On to `CSc1ccc(/C=C2\C=C(CC(=O)NCc3ccc(C)cc3)c3cc(F)ccc32)cc1` [Compound 17], for which the figures for the EC50 in experiment [1] (setting [3]) and in experiment [2] (setting [4]) were 0.73 ± 0.06 µM and 1.2 ± 0.1 µM, respectively.
In the case of `CSc1ccc(/C=C2\C=C(CC(=O)NCc3cccc(C)c3)c3cc(F)ccc32)cc1` [Compound 18], the EC50 in experiment [1] (setting [3]) and in experiment [2] (setting [4]) was more than 3 µM each time.
In the case of `CSc1ccc(/C=C2\C=C(CC(=O)NCc3ccccc3C)c3cc(F)ccc32)cc1` [Compound 19], the EC50 in experiment [1] (setting [3]) and in experiment [2] (setting [4]) was more than 3 µM each time.
On to `CSc1ccc(/C=C2\C=C(CC(=O)NCc3ccc(Cl)cc3)c3cc(F)ccc32)cc1` [Compound 20], for which the EC50 in experiment [1] (setting [3]) amounted to 0.63 ± 0.07 µM; in experiment [2] (setting [4]), 0.8 ± 0.1 µM.
On the same counts, the results for `CSc1ccc(/C=C2\C=C(CC(=O)NCc3cccc(Cl)c3)c3cc(F)ccc32)cc1` [Compound 21] are more than 3 µM and more than 3 µM.
On the same counts, the results for `CSc1ccc(/C=C2\C=C(CC(=O)NCc3ccc(Br)cc3)c3cc(F)ccc32)cc1` [Compound 22] are 0.67 ± 0.07 µM and 1.3 ± 0.2 µM.
Regarding `CSc1ccc(/C=C2\C=C(CC(=O)NCc3cccc(Br)c3)c3cc(F)ccc32)cc1` [Compound 23], the EC50 in experiment [1] (setting [3]) and in experiment [2] (setting [4]) was more than 3 µM each time.
For the compound `CSc1ccc(/C=C2\C=C(CC(=O)NCc3ccc(C(F)(F)F)cc3)c3cc(F)ccc32)cc1` [Compound 24], the EC50 in experiment [1] (setting [3]) and in experiment [2] (setting [4]) was more than 3 µM throughout.
`CSc1ccc(/C=C2\C=C(CC(=O)NCc3cccc(C(F)(F)F)c3)c3cc(F)ccc32)cc1` [Compound 25]: the EC50 in experiment [1] (setting [3]) and in experiment [2] (setting [4]) was more than 3 µM in each case.
For `CSc1ccc(/C=C2\C=C(CC(=O)NCc3ccc([N+](=O)[O-])cc3)c3cc(F)ccc32)cc1` [Compound 26], the figures for the EC50 in experiment [1] (setting [3]) and in experiment [2] (setting [4]) were 0.54 ± 0.07 µM and 2.1 ± 0.7 µM, respectively.
On the same counts, the results for `CSc1ccc(/C=C2\C=C(CC(=O)NCc3cccc([N+](=O)[O-])c3)c3cc(F)ccc32)cc1` [Compound 27] are more than 3 µM and more than 3 µM.
For `CSc1ccc(/C=C2\C=C(CC(=O)NCc3ccccc3[N+](=O)[O-])c3cc(F)ccc32)cc1` [Compound 28] the same measures were more than 3 µM and more than 3 µM.
On the same counts, the results for `[N-]=[N+]=NCc1ccc(/C=C2\C=C(CC(=O)NCc3ccc(C4(c5ccccc5)CO4)cc3)c3cc(F)ccc32)cc1` (centres unmarked) [Compound 29] are more than 3 µM and more than 3 µM.
Regarding `CSc1ccc(/C=C2\C=C(CC(=O)NCc3ccc(C(=O)c4ccccc4)cc3)c3cc(F)ccc32)cc1` [Compound 30], the EC50 worked out at 0.04 ± 0.02 µM in experiment [1] (setting [3]) and 0.18 ± 0.04 µM in experiment [2] (setting [4]).
Consider `[N-]=[N+]=NCc1ccc(/C=C2\C=C(CC(=O)NCc3ccc(NC(=O)CBr)cc3)c3cc(F)ccc32)cc1` [Compound 31], for which the EC50 in experiment [1] (setting [3]) and in experiment [2] (setting [4]) was more than 3 µM each time.
As for `C[S+]([O-])c1ccc(/C=C2\C=C(CC(=O)NCc3ccccc3)c3cc(F)ccc32)cc1` (centres unmarked) [Compound 32], the EC50 worked out at 2.4 ± 0.2 µM in experiment [1] (setting [5]) and 6 ± 1 µM in experiment [2] (setting [6]).
On the same counts, the results for `CS(=O)(=O)c1ccc(/C=C2\C=C(CC(=O)NCc3ccccc3)c3cc(F)ccc32)cc1` [Compound 33] are 0.8 ± 0.1 µM and 1.2 ± 0.3 µM.
Take `O=C(CC1=C/C(=C\c2ccccc2)c2ccc(F)cc21)NCc1ccccc1` [Compound 34]: the EC50 in experiment [1] (setting [5]) was found to be 5.4 ± 0.5 µM.
Consider `COc1ccc(/C=C2\C=C(CC(=O)NCc3ccccc3)c3cc(F)ccc32)cc1` [Compound 35], for which the EC50 turned out to be 0.7 ± 0.1 µM in experiment [1] (setting [5]) and 1 ± 0.8 µM in experiment [2] (setting [6]).
On to `O=C(O)CC1=C/C(=C\c2ccc(C(=O)O)cc2)c2ccc(F)cc21` [Compound 36], for which, in experiment [1] (setting [5]), the EC50 turned out to be 6.4 ± 0.6 µM.
With `O=C(O)CC1=C/C(=C\c2ccc(Br)cc2)c2ccc(F)cc21` [Compound 37], in experiment [1] (setting [5]), the EC50 is more than 10 µM.
As for `O=C(CC1=C/C(=C\C2CCCCC2)c2ccc(F)cc21)NCc1ccccc1` [Compound 38], the EC50 in experiment [1] (setting [5]) worked out at 6.7 ± 0.1 µM.
Regarding `COc1ccc2c(c1)c(CC(=O)O)c(C)n2C(=O)c1ccc(Cl)cc1` [Indomethacin, indomethacin, reference compound], the EC50 was found to be 162 ± 11 µM in experiment [1] (setting [3]) and 449 ± 97.6 µM in experiment [2] (setting [4]).
For `CSc1ccc(/C=C2/C(C)=C(CC(=O)O)c3cc(F)ccc32)cc1` [Sulindac sulfide, reference compound] the same measures were 98.2 ± 1.4 µM and 109 ± 10 µM.
